Assay results taken from ChEMBL document CHEMBL3045770, “Design and synthesis of some thieno[2,3-c]pyridazine derivatives of expected anticancer activity” (2013).

Columns and labels:
Assay type in all cases: functional
SK-MEL-28 = test: Cytotoxicity against Homo sapiens (human) SK-MEL-28 assessed as cell growth at 10 uM after 48 hr by SRB assay relative to control; conditions: SK-MEL-28, 48 h, read-out: Activity
MOLT-4 [1] = test: Cytotoxicity against Homo sapiens (human) MOLT4 assessed as cell growth at 10 uM after 48 hr by SRB assay relative to control; conditions: MOLT-4, 48 h, read-out: Activity
HCC 2998 = test: Cytotoxicity against Homo sapiens (human) HCC2998 cells after 48 hr by SRB assay; conditions: HCC 2998, 48 h
A549 [2] = test: Cytotoxicity against Homo sapiens (human) A549 assessed as cell growth at 10 uM after 48 hr by SRB assay relative to control; conditions: A549, 48 h, read-out: Activity
786-0 = test: Cytotoxicity against Homo sapiens (human) 786-0 cells after 48 hr by SRB assay; conditions: 786-0, 48 h
HOP-62 = test: Cytotoxicity against Homo sapiens (human) HOP62 assessed as cell growth at 10 uM after 48 hr by SRB assay relative to control; conditions: HOP-62, 48 h, read-out: Activity
SF-295 = test: Cytotoxicity against Homo sapiens (human) SF295 assessed as cell growth at 10 uM after 48 hr by SRB assay relative to control; conditions: SF-295, 48 h, read-out: Activity
LOX IMVI = test: Cytotoxicity against Homo sapiens (human) LOXIMVI assessed as cell growth at 10 uM after 48 hr by SRB assay relative to control; conditions: read-out: Activity
UACC-257 = test: Cytotoxicity against Homo sapiens (human) UACC257 assessed as cell growth at 10 uM after 48 hr by SRB assay relative to control; conditions: UACC-257, 48 h, read-out: Activity
MOLT-4 [3] = test: Cytotoxicity against Homo sapiens (human) MOLT4 cells after 48 hr by SRB assay; conditions: MOLT-4, 48 h
U-251 = test: Cytotoxicity against Homo sapiens (human) U251 cells after 48 hr by SRB assay; conditions: U-251, 48 h
MDA-MB-231 [4] = test: Cytotoxicity against Homo sapiens (human) MDA-MB-231 assessed as cell growth at 10 uM after 48 hr by SRB assay relative to control; conditions: MDA-MB-231, 48 h, read-out: Activity
RPMI-8226 = test: Cytotoxicity against Homo sapiens (human) RPMI8226 assessed as cell growth at 10 uM after 48 hr by SRB assay relative to control; conditions: RPMI-8226, 48 h, read-out: Activity
MCF7 = test: Cytotoxicity against Homo sapiens (human) MCF7 assessed as cell growth at 10 uM after 48 hr by SRB assay relative to control; conditions: MCF7, 48 h, read-out: Activity
NCI-H522 = test: Cytotoxicity against Homo sapiens (human) NCI-H522 assessed as cell growth at 10 uM after 48 hr by SRB assay relative to control; conditions: NCI-H522, 48 h, read-out: Activity
A549 [5] = test: Cytotoxicity against Homo sapiens (human) A549 cells after 48 hr by SRB assay; conditions: A549, 48 h
COLO 205 = test: Cytotoxicity against Homo sapiens (human) COLO205 assessed as cell growth at 10 uM after 48 hr by SRB assay relative to control; conditions: COLO 205, 48 h, read-out: Activity
SF-539 = test: Cytotoxicity against Homo sapiens (human) SF539 cells after 48 hr by SRB assay; conditions: SF-539, 48 h
NCI-H460 = test: Cytotoxicity against Homo sapiens (human) NCI-H460 assessed as cell growth at 10 uM after 48 hr by SRB assay relative to control; conditions: NCI-H460, 48 h, read-out: Activity
A498 = test: Cytotoxicity against Homo sapiens (human) A498 cells after 48 hr by SRB assay; conditions: A498, 48 h
Hs-578T = test: Cytotoxicity against Homo sapiens (human) Hs 578T assessed as cell growth at 10 uM after 48 hr by SRB assay relative to control; conditions: read-out: Activity
MDA-MB-231 [6] = test: Cytotoxicity against Homo sapiens (human) MDA-MB-231 cells after 48 hr by SRB assay; conditions: MDA-MB-231, 48 h
NCI-H322M = test: Cytotoxicity against Homo sapiens (human) NCI-H322M cells after 48 hr by SRB assay
SNB-75 = test: Cytotoxicity against Homo sapiens (human) SNB75 assessed as cell growth at 10 uM after 48 hr by SRB assay relative to control; conditions: SNB-75, 48 h, read-out: Activity
SNB-19 = test: Cytotoxicity against Homo sapiens (human) SNB19 assessed as cell growth at 10 uM after 48 hr by SRB assay relative to control; conditions: SNB-19, 48 h, read-out: Activity
HCT-116 = test: Cytotoxicity against Homo sapiens (human) HCT116 cells after 48 hr by SRB assay; conditions: HCT-116, 48 h
T47D [7] = test: Cytotoxicity against Homo sapiens (human) T47D assessed as cell growth at 10 uM after 48 hr by SRB assay relative to control; conditions: read-out: Activity
NCI-H23 = test: Cytotoxicity against Homo sapiens (human) NCI-H23 assessed as cell growth at 10 uM after 48 hr by SRB assay relative to control; conditions: NCI-H23, 48 h, read-out: Activity
HOP-92 = test: Cytotoxicity against Homo sapiens (human) HOP92 assessed as cell growth at 10 uM after 48 hr by SRB assay relative to control; conditions: HOP-92, 48 h, read-out: Activity
T47D [8] = test: Cytotoxicity against Homo sapiens (human) T47D cells after 48 hr by SRB assay
[9] = read-out: LC50 (the source's name)

Oc1c(-c2nnc(-c3ccc(Cl)cc3)o2)sc2nnc(-c3ccccc3)c(-c3ccccc3)c12
growth at 10 µM (SK-MEL-28): 71.8%
growth at 10 µM (MOLT-4 [1]): 35.8%
GI50 (HCC 2998): 4.99 µM
TGI (HCC 2998): 18.3 µM
growth at 10 µM (A549 [2]): 51.2%
GI50 (786-0): 5.86 µM
TGI (786-0): 18.3 µM
growth at 10 µM (HOP-62): 51.2%
growth at 10 µM (SF-295): 23.5%
growth at 10 µM (LOX IMVI): 28.1%
growth at 10 µM (UACC-257): 85%
GI50 (MOLT-4 [3]): 4.47 µM
TGI (MOLT-4 [3]): 18.3 µM
CC50 (MOLT-4 [3]; [9]): 0.0183 µM
GI50 (U-251): 3.55 µM
TGI (U-251): 18.3 µM
CC50 (U-251; [9]): 0.0183 µM
growth at 10 µM (MDA-MB-231 [4]): 77.9%
growth at 10 µM (RPMI-8226): 40.4%
growth at 10 µM (MCF7): 33.5%
growth at 10 µM (NCI-H522): 75.1%
GI50 (A549 [5]): 4.65 µM
TGI (A549 [5]): 14.8 µM
CC50 (A549 [5]; [9]): 0.0183 µM
growth at 10 µM (COLO 205): 67.4%
GI50 (SF-539): 4.75 µM
TGI (SF-539): 15.8 µM
CC50 (SF-539; [9]): 0.0183 µM
growth at 10 µM (NCI-H460): 27.4%
GI50 (A498): 5.92 µM
TGI (A498): 12.5 µM
CC50 (A498; [9]): 0.0183 µM
growth at 10 µM (Hs-578T): 62.4%
GI50 (MDA-MB-231 [6]): 4.56 µM
TGI (MDA-MB-231 [6]): 12.3 µM
CC50 (MDA-MB-231 [6]; [9]): 0.0183 µM
GI50 (NCI-H322M): 4.17 µM
TGI (NCI-H322M): 10.6 µM
CC50 (NCI-H322M; [9]): 0.0183 µM
growth at 10 µM (SNB-75): 62.8%
growth at 10 µM (SNB-19): 43.9%
GI50 (HCT-116): 3.97 µM
TGI (HCT-116): 7.16 µM
growth at 10 µM (T47D [7]): 53%
growth at 10 µM (NCI-H23): 56.5%
growth at 10 µM (HOP-92): 54.5%
GI50 (T47D [8]): 4.89 µM
TGI (T47D [8]): 18.3 µM
